Consider one compound from PMC1796864, “Crystal structure of AFV3-109, a highly conserved protein from crenarchaeal viruses” (Virology Journal, 2007).

This experiment concerns the target T1, AFV3-109 (Betalipothrixvirus acidiani, UniProt A7WKA5).
T1 construct: homodimer in solution and crystal
The experiment is described as follows: tryptophan fluorescence quenching titration. Type of experiment: binding. The conditions noted are these: read-out: KDapp.

Consider `OCC(O)CO` [glycerol], for which the Kd is 1.7 µM.
